Source: US6191145A, “Orally-active nipecotamide glycolamide esters for the treatment of thrombosis disorders” (Ortho-McNeil Pharmaceutical, Inc., priority 1999, dated 2001)
Counter-ions that a name gives are not always drawn.

How the values were obtained:
GPIIb/IIIa = GPIIb/IIIa (Homo sapiens, UniProt P05106+P08514); experiment: In vitro solid phase purified glycoprotein IIb/IIIa binding assay (fibrinogen binding); conditions: for inhibition at 50 µM: read-out: Fibrinogen Binding % Inh. (50 μM)
Description: The plate is covered and incubated overnight at 4° C. The GPIIb/IIa solution is discarded and 150 μl of 5% BSA is added and incubated at RT for 1-3 h. The plate is washed extensively with modified Tyrodes buffer. Biotinylated fibrinogen (25 μl/well) at 2×final concentration is added to the wells that contain the test compounds (25 μl/well). The plate is covered and incubated at RT for 2-4 h. Twenty minutes prior to incubation completion, one drop of Reagent A (Vecta Stain ABC Horse Radish Peroxidase kit, Vector Laboratories, Inc.) and one drop Reagent B are added with mixing to 5 mL modified Tyrodes buffer mix and let stand. The ligand solution is discarded and the plate washed (5×200 μl/well) with modified Tyrodes buffer. Vecta Stain HRP-Biotin-Avidin reagent (50 μl/well, as prepared above) is added and incubated at RT for 15 min. The Vecta Stain solution is discarded and the wells washed (5×200 μl/well) with modified Tyrodes buffer. Developing buffer (10 mL of 50 mM citrate/phosphate buffer @ pH 5.3, 6 mg 2-phenylenediamine, 6 μl 30% H2 O2; 50 μl/well) is added and incubated at RT for 3-5 min, and then 2N H2 SO4 (50 μl/well) is added. The absorbance is read at 490 nm.

[1] = tested on: collagen-induced ex vivo platelet aggregation; experiment: Ex vivo dog study: duration of >50% inhibition of collagen-induced ex vivo platelet aggregation; format: in vivo
Description: Adult mongrel dogs (8-13 kg) were anesthetized with sodium pentobarbital (35 mg/kg, i.v.) and artificially respired. Arterial blood pressure and heart rate were measured using a Millar catheter-tip pressure transducer inserted in a femoral artery. Another Millar transducer was placed in the left ventricle (LV) via a carotid artery to measure LV end diastolic pressure and indices of myocardial contractility. A lead II electrocardiogram was recorded from limb electrodes. Catheters were placed in a femoral artery and vein to sample blood and infuse drugs, respectively. Responses were continuously monitored using a Modular Instruments data aquisition system.
Arterial blood samples (5-9 ml) were withdrawn into tubes containing 3.8% sodium citrate to prepare platelet rich plasma (PRP) and to determine effects on coagulation parameters: prothrombin time (PT) and activated partial thromboplastin time (APTT). Separate blood samples (1.5 ml) were withdrawn in EDTA to determine hematocrit and cell counts (platelets, RBC's and white cells). Template bleeding times were obtained from the buccal surface using a symplate incision devise and Whatman filter paper.
Aggregation of PRP was performed using a BioData aggregometer. Aggregation of whole blood used a Chronolog impedance aggregometer. PT and APTT were determined on either a BioData or ACL 3000+ coagulation analyser. Cells were counted with a Sysmex K-1000.
Compounds were solubilized in a small volume of dimethylformamide (DMF) and diluted with saline to a final concentration of 10% DMF. Compounds were administered by the intravenous route with a Harvard infusion pump. Doses was administered over a 15 min interval at a constant rate of 0.33 ml/min. Data were obtained after each dose and in 30 min intervals following the end of drug administration. Oral doses were administered as aqueous solutions via syringe.

[2] = tested on: Thrombin-induced aggregation of gel-filtered platelets; experiment: In vitro inhibition of thrombin-induced gel-filtered platelet aggregation; format: cell-based; conditions: Homo sapiens; for inhibition at 50 µM: read-out: Platelet Aggregation % Inh. (50 μM)
Description: The percentage of platelet aggregation is calculated as an increase in light transmission of compound-treated platelet concentrate vs. control-treated platelet concentrate. Human blood is obtained from drug free, normal donors into tubes containing 0.13M sodium citrate. Platelet rich plasma (PRP) is collected by centrifugation of whole blood at 200×g for 10 min at 25° C. The PRP (5 mL) is gel filtered through Sepharose 2B (bed volume 50 mL), and the platelet count is adjusted to 2×10^7 platelets per sample. The following constituents are added to a siliconized cuvette: concentrated platelet filtrate and Tyrode's buffer (0.14M NaCl, 0.0027M KCl, 0.012M NaHCO3,0.76 mM Na2 HPO4, 0.0055M glucose, 2 mg/mL BSA and 5.0 mM HEPES @ pH 7.4) in an amount equal to 350 μl, 50 μl of 20 mM calcium and 50 μl of the test compound. Aggregation is monitored in a BIODATA aggregometer for the 3 min following the addition of agonist (thrombin 50 μl of 1 unit/mL).

[3] = tested on: thrombin-induced platelet aggregation; conditions: L. Alig, J. Med. Chem. 1992, 35, 4393; read-out: IC50 against in vitro thrombin-induced platelet aggregation; cited from earlier work

GPIIb/IIIa, sequence (P08514 32-887 limits assumed): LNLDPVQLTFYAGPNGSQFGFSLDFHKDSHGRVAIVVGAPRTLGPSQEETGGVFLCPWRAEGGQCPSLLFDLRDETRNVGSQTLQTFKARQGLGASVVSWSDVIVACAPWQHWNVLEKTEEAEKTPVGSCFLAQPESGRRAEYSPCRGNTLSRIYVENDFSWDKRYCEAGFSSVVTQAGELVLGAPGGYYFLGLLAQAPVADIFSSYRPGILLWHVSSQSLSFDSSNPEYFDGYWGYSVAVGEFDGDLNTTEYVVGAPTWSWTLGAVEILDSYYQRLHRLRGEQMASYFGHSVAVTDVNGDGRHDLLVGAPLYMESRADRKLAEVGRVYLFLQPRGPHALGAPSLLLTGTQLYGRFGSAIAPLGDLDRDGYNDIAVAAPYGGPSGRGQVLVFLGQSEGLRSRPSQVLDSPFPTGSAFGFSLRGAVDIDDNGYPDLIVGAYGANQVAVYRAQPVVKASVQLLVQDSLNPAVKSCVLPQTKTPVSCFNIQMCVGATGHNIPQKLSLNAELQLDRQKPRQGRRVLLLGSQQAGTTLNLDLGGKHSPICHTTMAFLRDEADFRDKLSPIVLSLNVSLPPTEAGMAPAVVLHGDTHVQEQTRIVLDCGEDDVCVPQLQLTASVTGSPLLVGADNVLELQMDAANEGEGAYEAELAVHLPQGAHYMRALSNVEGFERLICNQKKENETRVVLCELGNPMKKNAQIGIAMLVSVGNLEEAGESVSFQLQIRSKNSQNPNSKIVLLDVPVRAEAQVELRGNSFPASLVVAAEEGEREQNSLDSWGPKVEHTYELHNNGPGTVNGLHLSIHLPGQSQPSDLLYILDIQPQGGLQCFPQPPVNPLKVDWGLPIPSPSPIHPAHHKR
GPIIb/IIIa, sequence (P08514 891-1039 limits assumed): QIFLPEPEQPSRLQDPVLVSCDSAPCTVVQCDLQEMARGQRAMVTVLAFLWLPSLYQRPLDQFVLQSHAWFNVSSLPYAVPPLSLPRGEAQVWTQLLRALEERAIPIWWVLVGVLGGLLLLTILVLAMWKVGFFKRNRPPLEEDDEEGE
GPIIb/IIIa, sequence (P05106 27-788): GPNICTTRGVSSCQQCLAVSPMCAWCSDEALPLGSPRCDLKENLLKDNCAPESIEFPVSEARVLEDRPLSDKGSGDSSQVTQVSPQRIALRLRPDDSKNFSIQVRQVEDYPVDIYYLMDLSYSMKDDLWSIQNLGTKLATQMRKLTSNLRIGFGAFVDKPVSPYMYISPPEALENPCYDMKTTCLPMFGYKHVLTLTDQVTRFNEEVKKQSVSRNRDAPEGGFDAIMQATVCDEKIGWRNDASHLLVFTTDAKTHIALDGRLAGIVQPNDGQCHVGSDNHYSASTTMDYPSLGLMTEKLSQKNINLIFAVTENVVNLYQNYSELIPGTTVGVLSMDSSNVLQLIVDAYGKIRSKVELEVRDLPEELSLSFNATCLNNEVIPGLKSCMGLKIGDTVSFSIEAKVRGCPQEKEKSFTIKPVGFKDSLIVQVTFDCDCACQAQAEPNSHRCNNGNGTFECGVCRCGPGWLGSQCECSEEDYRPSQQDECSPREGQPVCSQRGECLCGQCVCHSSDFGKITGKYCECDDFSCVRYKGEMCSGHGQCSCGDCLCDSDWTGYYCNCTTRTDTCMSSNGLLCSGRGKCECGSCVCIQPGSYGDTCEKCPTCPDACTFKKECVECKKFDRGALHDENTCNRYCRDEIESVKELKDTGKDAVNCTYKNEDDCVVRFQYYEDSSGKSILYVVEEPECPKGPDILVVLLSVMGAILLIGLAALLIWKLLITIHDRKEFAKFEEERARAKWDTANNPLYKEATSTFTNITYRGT

Q: Which results are given for `CCN(CC)C(=O)COC(=O)C[C@H](NC(=O)[C@@H]1CCCN(C(=O)CCC2CCNCC2)C1)c1cccnc1` [Compound 1, N-3-(4-Piperidinepropionyl)-R-(-)-nipecotyl-[(S)-3-amino-3-(3-pyridyl)]propionic acid 2-(Diethylamino)-2-oxoethyl ester.2HCl]?
A: IC50 (GPIIb/IIIa): 0.7 nM; inhibition at 50 µM (GPIIb/IIIa): 100%; Duration of >50% inhibition of collagen-induced ex vivo platelet aggregation, intravenous dosing ([1]; 0.3 mpk): 60 min; Duration of >50% inhibition of collagen-induced ex vivo platelet aggregation, oral dosing ([1]; 3 mpk): > 180 min; IC50 [2]: 140 nM; inhibition at 50 µM [2]: 100%

Q: With `O=C(N[C@@H](CNC(=O)[C@@H]1CCCN(C(=O)/C=C/C2CCNCC2)C1)C(=O)OCC(=O)N1CCCCC1)OCc1ccccc1` [Compound 6, N-3-(4-Piperidinepropenoyl)-R-(-)nipecotyl-[(S)-2-benzyloxycarbonylamino-3-amino]propionic acid 2-(Piperidino)-2-oxoethyl ester.HCl] as the compound, how does the IC50 (GPIIb/IIIa) read?
A: Its IC50 is 2.5 nM.

Q: And the inhibition at 50 µM (GPIIb/IIIa)?
A: Its inhibition at 50 µM is 100%.

Q: And the “Duration of >50% inhibition of collagen-induced ex vivo platelet aggregation, oral dosing” value (“Duration of >50% inhibition … oral dosing” below) ([1]; 1 mpk)?
A: Its value is 150 min.

Q: What about the IC50 [2] of the same compound?
A: Its IC50 is 510 nM.

Q: What about the inhibition at 50 µM [2] of the same compound?
A: The inhibition at 50 µM was 100%.

Q: What does the source list for `CCN(CC)C(=O)COC(=O)[C@H](CNC(=O)[C@@H]1CCCN(C(=O)CCC2CCNCC2)C1)NC(=O)OCc1ccccc1` [Compound 4, N-3-(4-Piperidinepropionyl)-R-(-)nipecotyl-[(S)-2-benzyloxycarbonylamino-3-amino]propionic acid 2-(Diethylamino)-2-oxoethyl ester.HCl]?
A: IC50 (GPIIb/IIIa): 2 nM; inhibition at 50 µM (GPIIb/IIIa): 100%; Duration of >50% inhibition of collagen-induced ex vivo platelet aggregation, intravenous dosing ([1]; 0.1 mpk): 60 min; Duration of >50% inhibition of collagen-induced ex vivo platelet aggregation, oral dosing ([1]; 3 mpk): > 240 min; IC50 [2]: 290 nM; inhibition at 50 µM [2]: 100%

Q: With `CN(CC(=O)c1ccc(OCC(=O)O)c(OCC(=O)O)c1)C(=O)c1ccc(C(=N)N)cc1` [Ro-438857] as the compound, how does the IC50 [3] read?
A: The IC50 was 94 nM.

Q: For `CCN(CC)C(=O)COC(=O)[C@H](CNC(=O)[C@@H]1CCCN(C(=O)/C=C/C2CCNCC2)C1)NC(=O)OCc1ccccc1` [Compound 5, N-3-(4-Piperidinepropenoyl)-R-(-)nipecotyl-[(S)-2-benzyloxycarbonylamino-3-amino]propionic acid 2-(Diethylamino)-2-oxoethyl ester.HCl], which IC50 (GPIIb/IIIa) is on record?
A: Its IC50 is 9.7 nM.

Q: And the inhibition at 50 µM (GPIIb/IIIa)?
A: The inhibition at 50 µM was 100%.

Q: What about the “Duration of >50% inhibition of collagen-induced ex vivo platelet aggregation, intravenous dosing” value ([1]; 0.1 mpk) of the same compound?
A: Its value is 60 min.

Q: And the “Duration of >50% inhibition … oral dosing” value ([1]; 1 mpk)?
A: Its value is > 240 min.

Q: And the IC50 [2]?
A: The IC50 was 270 nM.

Q: And the inhibition at 50 µM [2]?
A: Its inhibition at 50 µM is 100%.

Q: What does the source list for `CCN(CC)C(=O)COC(=O)C[C@H](NC(=O)[C@@H]1CCCN(C(=O)CCC2CCNCC2)C1)c1ccc2c(c1)OCO2` [Compound 2]?
A: IC50 (GPIIb/IIIa): 5 nM; inhibition at 50 µM (GPIIb/IIIa): 100%; Duration of >50% inhibition of collagen-induced ex vivo platelet aggregation, intravenous dosing ([1]; 1.0 mpk): 120 min; Duration of >50% inhibition of collagen-induced ex vivo platelet aggregation, oral dosing ([1]; 3 mpk): 150 min; IC50 [2]: 1100 nM; inhibition at 50 µM [2]: 100%

Q: Which “Duration of >50% inhibition … oral dosing” value ([1]; 3 mpk) does the source give for `O=C(N[C@@H](CNC(=O)[C@@H]1CCCN(C(=O)CCC2CCNCC2)C1)C(=O)O)OCc1ccccc1` [carboxylic acid congener, reference compound] here?
A: The value was 180 min.

Q: Which results are given for `CCN(CC)C(=O)COC(=O)C[C@H](NC(=O)[C@@H]1CCCN(C(=O)CCC2CCNCC2)C1)c1cncc(Br)c1` [Compound 3]?
A: IC50 (GPIIb/IIIa): 0.9 nM; inhibition at 50 µM (GPIIb/IIIa): 100%; Duration of >50% inhibition of collagen-induced ex vivo platelet aggregation, oral dosing ([1]; 3 mpk): 90 min; IC50 [2]: 190 nM; inhibition at 50 µM [2]: 100%
